Measured values taken from patent EP0808325B1, “[…] […] SERIES FOR […] GABA RECEPTOR” (priority 1994, dated 1996).

Columns and labels:
mice = test: elevated plus-maze; assay type: in vivo, N.I.H. Swiss-Webster mice; details: IP
From the text: The theoretical basis for the elevated plus-maze test is similar to that of the light/dark transition test. As described by Pellow et al., J. Neurosci. Meth 14:149-167 (1985), the elevated plus-maze apparatus is designed to utilize the mice's natural aversion to open spaces. The apparatus consists of two open-arms and two enclosed-arms. The elevated plus-maze test allows for two measures of anxiety, the number of entries into the open-arms and the time spent on the open-arms, both expressed as a percentage of the total number of entries and time spent in/on both the open-arms and enclosed-arms.
Male N.I.H. Swiss-Webster mice (Harlan, Indianapolis, IN) weighing 15-20 g were housed four per cage in polyethylene cages with sawdust bedding. The colony room was environmentally controlled (22°C) with a 12 hr light/dark cycle (0600-1800 hr). Food and water were available ad libitum, except during testing. The experiments were run from 0700-1500 hr and groups were counterbalanced for time of day effects. Mice were only administered drug or vehicle once.
The method used was previously described (Lister, Psychopharmacol. 92:180-185 (1987)). The apparatus included two open arms perpendicular to two enclosed arms elevated 50 cm from the floor. Each arm was 50 cm long and the walls of the enclosed arms were 40 cm tall. The maze was made completely of black plexiglass. Incandescent 200 W light bulbs were above each of the open arms to produce a strong contrast between the open arms and the enclosed arms.
Ten minutes after an injection, the N.I.H. Swiss-Webster mice were placed in the center of the plus-maze facing an open arm. During the 5 min test period, the number of entries onto the open arms and the enclosed arms, and the time spent in the open arms and enclosed arms were measured. All four paws had to be within an arm for the dependent variable to be measured. Therefore, the time spent in the center of the maze is not counted, so the total time spent in the open arms and the enclosed arms may not equal 5 min. […]

[1] = test system: metrazol induced convulsions; test: animal or person; assay type: in vivo, mice; details: IP
Procedure: Experiments were also performed to determine the physiological relevance of neuroactive steroid and GABA receptor interactions by assessing the ability of the compounds of and used in the invention to prevent metrazol induced convulsions in mice. […] The time to onset of myoclonus (presence of forelimb clonic activity) induced by metrazol was determined by observing each mouse for a period of 30 minutes. […]
The anticonvulsant tests are similar to that described above. […] The number of animals with tonic and/or clonic convulsions was recorded. In the maximal electroshock test, 50 mA of current at 60 Hz was delivered through corneal electrodes for 200 msec to induce tonic seizure. The ability of compounds to abolish the tonic component was defined as the endpoint. General CNS depression potential was determined by a rotorod test 10 minutes after the injection of compounds where the number of mice staying on a rotating (6 rpm) rod for 1 minute in one of the three trials was determined. […]

GR complex = test: modulation of [35S]TBPS binding in rat cerebral cortex P2 homogenate; parameters: species or system Sprague-Dawley rats; IMAX: unit not given here; details: for IC50: concentration of compounds to inhibit 50% of control [35S]TBPS binding, 2 nM [35S]TBPS, 25°C, 90 minutes; for IMAX: maximum inhibition of [35S]TBPS binding, I* = Inactive
Procedure: We performed several experiments to determine the nature of the modulation of [^35S]TBPS as affected by the compounds of the invention.
These procedures were performed as follows:
Brains from male Sprague-Dawley rats were removed immediately following sacrifice and the cerebral cortices dissected over ice. […] Briefly, the cortices were gently homogenized in 0.32 M sucrose followed by centrifugation at 1000 x g for 10 minutes. The supernatant was collected and centrifuged at 9000 x g for 20 minutes. The resultant P2 pellet was suspended as a 10% (original wet weight/volume) suspension in 50 mM Na/K phosphate buffer (pH 7.4) 200 mM NaCI to form the homogenate.
One hundred microliter […] aliquots of the P2 homogenate (0.5 milligrams (mg) protein) were incubated with 2 nanomolar (nM) [^35S]TBPS (70-110 curies/millimole;, New England Nuclear, Boston, MA) in the presence or absence of the naturally occurring steroids or their synthetic derivatives to be tested. The tested compounds were dissolved in dimethylsulfoxide (Baker Chem. Co., Phillipsbury, NJ) and added to the incubation mixture in 5 µL aliquots. The incubation mixture was brought to a final volume of 1 mL with buffer. Nonspecific binding was defined as binding in the presence of […]. The effect and specificity of GABA (Sigma Chem. Co., St. Louis, MO) was evaluated by performing all assays in the presence of GABA plus (+)bicuculline (Sigma Chem. Co.). Incubations maintained at 25°C for 90 minutes (steady state conditions) were terminated by rapid filtration through glass fiber filters (No. 32, Schleicher and Schuell, Keene, NH). Filter-bound radioactivity was quantitated by liquid scintillation spectrophotometry.
Various compounds were screened to determine their potential as modulators of [^35S]TBPS binding in vitro. These assays were performed in accordance with the above discussed procedures. […] It is an indication of a compound's in vitro potency. Maximum inhibition is an indication of a compound's in vitro efficacy.

[2] = 50% hpbcd, 10 mg/kg, 10 minutes prior to metrazol (85 mg/kg)

For `C[C@]12CC[C@](O)(CF)C[C@@H]1CC[C@@H]1[C@@H]2CC[C@]2(C)[C@@H](C(=O)CO)CC[C@@H]12` [3α,21-dihydroxy-3β-fluoromethyl-5α-pregnan-20-one], the “% Control” value (mice; 50% hpbcd, 10 mg/kg) was 109%, the “% Protected” value [1, 2] was 25% and the IC50 (GR complex; no unit printed) was 592 nM. The IMAX (GR complex) was 101.
With `C#C[C@@]1(O)CC[C@H]2[C@H](CC[C@@H]3[C@@H]2CC[C@]2(C)[C@@H](C(C)=O)CC[C@@H]32)C1` [3β-ethynyl-3α-hydroxy-19-nor-5β-pregnan-20-one] the “% Control” value (mice; 50% hpbcd, 10 mg/kg) was 172%, the “% Protected” value [1, 2] was 87.5% and the IC50 (GR complex; no unit printed) was 44 nM. For the same compound, the IMAX (GR complex) was 93.
In the case of “Bis (3α,21-dihydroxy-3β-trifluoromethyl-5β-pregnan-20-one) 21-hemisuccinate”, the “% Control” value (mice; 50% hpbcd, 10 mg/kg) is reported as 92%, the “% Protected” value [1, 2] is reported as 25% and the IC50 (GR complex; no unit printed) is reported as 189 nM. It also gave an IMAX (GR complex) of 23.
With `C#C[C@@]1(O)CC[C@@]2(C)[C@H](CC[C@H]3[C@@H]4CC[C@H](C(C)=O)[C@@]4(C)CC(=O)[C@@H]32)C1` [3β-Ethynyl-3α-hydroxy-5β-pregnan-11,20-dione] the “% Control” value (mice; 50% hpbcd, 5 mg/kg) was 235.9%.
For `CC(=O)C1CCC2C3CCC4CC(O)(C(F)(F)F)CCC4(C)C3C(=O)CC12C` (stereo not drawn) [3α-Hydroxy-3β-trifluoromethyl-5β-pregnan-11,20-dione], the “% Control” value (mice; 50% hpbcd, 10 mg/kg) was 112%.
For `C=C[C@@]1(O)CC[C@@]2(C)[C@H](CC[C@@H]3[C@@H]2CC[C@]2(C)[C@@H](C(C)=O)CC[C@@H]32)C1` [3β-ethenyl-3α-hydroxy-5β-pregnan-20-one], the “% Control” value (mice; 50% hpbcd, 10 mg/kg) was 151%, the “% Protected” value [1, 2] was 87.5% and the IC50 (GR complex; no unit printed) was 46 nM. For the same compound, the IMAX (GR complex) was 100.
`CC12CCC(O)(C(F)(F)F)CC1CCC1C2CCC2(C)C(C(=O)COC(=O)C=CC(=O)[O-])CCC12.[Na+]` (stereo not drawn) [3α,21-dihydroxy-3β-trifluoromethyl-5β-pregnan-20-one 21 hemifumarate sodium salt] was tested, and the “% Control” value (mice; water, dose column prints 50% hpbcd) was 126%, the “% Protected” value ([1]; water, 10 mg/kg) was 50% and the IC50 (GR complex; no unit printed) was 546 nM. It also gave an IMAX (GR complex) of 102.
`C[C@]12CC[C@H]3[C@@H](CC[C@@H]4C[C@@](O)(C(F)(F)F)CC[C@@H]43)[C@@H]1CC[C@@H]2C(=O)CO` [3α,21-Dihydroxy-3β-trifluoromethyl-5β-19-norpregnan-20-one] was tested, and the “% Control” value (mice; 50% hpbcd, 10 mg/kg) was 140%, the “% Protected” value [1, 2] was 118.8% and the IC50 (GR complex; no unit printed) was 246 nM. It also gave an IMAX (GR complex) of 100.
In the case of `C#C[C@@]1(O)CC[C@@]2(C)[C@H](CC[C@H]3[C@@H]4CC[C@H](C(C)=O)[C@@]4(C)C=C[C@@H]32)C1` [3β-Ethynyl-3α-hydroxy-5β-pregn-11-en-20-one], the “% Control” value (mice; 50% hpbcd, 10 mg/kg) is reported as 233% and the “% Protected” value [1, 2] is reported as 75%.
For `CC(=O)[C@H]1CC[C@H]2[C@@H]3CC[C@H]4C[C@](O)(C(F)(F)F)CC[C@]4(C)[C@H]3CC[C@]12C` [3α-Hydroxy-3β-trifluoromethyl-5α-pregnan-20-one], the “% Protected” value [1, 2] was 62.5%, the IC50 (GR complex; no unit printed) was 244 nM and the IMAX (GR complex) was 44.
In the case of `C[C@]12CC[C@@H](O)C[C@@H]1CC[C@@H]1[C@@H]2CC[C@]2(C)[C@@H](C(=O)COC(=O)CCC(=O)[O-])CC[C@@H]12.[Na+]` [3α,21-dihydroxy-5α-pregnan-20-one 21-hemisuccinate, sodium salt], the “% Protected” value ([1]; water, 60 mg/kg) is reported as 100%, the IC50 (GR complex; unit inferred, sodium salt) is reported as 251 nM and the IMAX (GR complex) is reported as 92.
`C=C(C)C#C[C@@]1(O)CC[C@@]2(C)[C@H](CC[C@@H]3[C@@H]2CC[C@]2(C)[C@@H](C(C)=O)CC[C@@H]32)C1` [3α-hydroxy-3β-(3'-methyl-but-3'-en-1'-ynyl)-5β-pregnan-20-one] was tested, and the “% Control” value (mice; 50% hpbcd, 10 mg/kg) was 155%, the “% Protected” value [1, 2] was 100% and the IC50 (GR complex; no unit printed) was 24 nM. It also gave an IMAX (GR complex) of 91.
`CC(=O)[C@H]1CC[C@H]2[C@@H]3CC[C@H]4C[C@@](O)(C(F)(F)F)CC[C@@H]4[C@H]3CC[C@]12C` [3β-Trifluoromethyl-3α-hydroxy-5α-19-norpregnan-20-one] was tested, and the “% Control” value (mice; 50% hpbcd, 10 mg/kg) was 161%, the “% Protected” value [1, 2] was 25% and the IC50 (GR complex; no unit printed) was 251 nM. It also gave an IMAX (GR complex) of 40.
`CCC(O)C1CCC2C3CCC4CC(C)(O)CCC4(C)C3CCC12C` (stereo not drawn) [3α,20α-Dihydroxy-3β,21-dimethyl-5α-pregnane] was tested, and the “% Control” value (mice; dmso, 10 mg/kg) was 73%, the “% Protected” value ([1]; dmso, 10 mg/kg) was 0% and the IC50 (GR complex; no unit printed) was 507 nM. For the same compound, the IMAX (GR complex) was 48.
For `C#C[C@@]1(O)CC[C@@]2(C)[C@@H](CC[C@@H]3[C@@H]2CC[C@]2(C)[C@@H]([C@@H](C)O)CC[C@@H]32)C1` [3α,20β-dihydroxy-3β-ethynyl-5α-pregnane, 3β-ethynyl-3α,20β-dihydroxy- 5α-pregnane], the “% Protected” value [1, 2] was 37.5%, the IC50 (GR complex; no unit printed) was 774 nM and the IMAX (GR complex) was 107.
For `C[C@]12CC[C@](O)(C(F)(F)F)C[C@H]1CC[C@@H]1[C@@H]2CC[C@]2(C)[C@@H](C(=O)COC(=O)CCC(=O)O)CC[C@@H]12` [3α,21-Dihydroxy-3β-trifluoromethyl-5β-pregnan-20-one, 21-hemisuccinate], the “% Protected” value ([1]; water, 10 mg/kg) was 50%, the IC50 (GR complex; no unit printed) was 648 nM and the IMAX (GR complex) was 101.
For `C[C@@]1(O)CC[C@@]2(C)[C@@H](CC[C@@H]3[C@@H]2CC[C@]2(C)[C@@H](C(=O)COC(=O)CCC(=O)[O-])CC[C@@H]32)C1.[Na+]` [3α,21-dihydroxy-3β-methyl-5α-pregnan-20-one 21-Hemisuccinate, sodium salt], the “% Protected” value ([1]; micro soln., 10 mg/kg) was 11.11%, the IC50 (GR complex; unit inferred, sodium salt) was 211 nM and the IMAX (GR complex) was 104.
In the case of `C#C[C@@]1(O)CC[C@@]2(C)[C@H](CC[C@@H]3[C@@H]2CC[C@]2(C)[C@@H](C(C)O)CC[C@@H]32)C1` (stereo partly drawn) [3α,20-Dihydroxy-3β-ethynyl-5β-pregnane], the “% Control” value (mice; dmso, 10 mg/kg) is reported as 178%.
`CC(=O)[C@H]1CC[C@H]2[C@@H]3CC[C@H]4C[C@](C)(O)CC[C@@H]4[C@H]3CC[C@]12C` [3α-hydroxy-3β-methyl-5α-19-nor-pregnan-20-one] was tested, and the “% Protected” value ([1]; micro soln., 10 mg/kg) was 37.5%, the IC50 (GR complex; no unit printed) was 91 nM and the IMAX (GR complex) was 80.
In the case of `CC(=O)OCC(=O)[C@H]1CC[C@H]2[C@@H]3CC[C@@H]4C[C@H](O)CC[C@]4(C)[C@H]3CC[C@]12C` [3α,21-dihydroxy-5β-pregnan-20-one 21-acetate], the “% Protected” value [1, 2] is reported as 25%, the IC50 (GR complex; no unit printed) is reported as 119 nM and the IMAX (GR complex) is reported as 49.
With `CC(=O)OCC(=O)[C@H]1CC[C@H]2[C@@H]3CC[C@H]4C[C@](C)(O)CC[C@]4(C)[C@H]3CC[C@]12C` [3α,21-Hydroxy-3β-methyl-5α-pregnan-20-one, 21-acetate] the “% Protected” value ([1]; micro soln., 10 mg/kg) was 10%, the IC50 (GR complex; no unit printed) was 284 nM and the IMAX (GR complex) was 93.
In the case of `C#C[C@@]1(O)CC[C@@]2(C)[C@H](CC[C@@H]3[C@@H]2CC[C@]2(C)[C@@H](C(=O)COC(=O)CCC(=O)OCC(=O)[C@H]4CC[C@H]5[C@@H]6CC[C@@H]7C[C@@](O)(C#C)CC[C@]7(C)[C@H]6CC[C@]45C)CC[C@@H]32)C1` [Bis (3α,21-dihydroxy-3β-ethynyl-5β-pregnan-20-one) 21-hemisuccinate], the “% Protected” value [1, 2] is reported as 37.5%, the IC50 (GR complex; no unit printed) is reported as 68 nM and the IMAX (GR complex) is reported as 56.
